“And” between values parts separate entries of the source, which are not always exact repeats. Equal values may be shown once. Read-outs that look alike come from different tables or passages of the source. Non-standard residues stand in square brackets, D forms with d. Residues, ends and D or L forms follow the SMILES beside them. NMeH = CN[C@@H](Cc1c[nH]cn1)C(=O)O; Gly(N-CH2CH2OH) = O=C(O)CNCCO; NMeL = CN[C@@H](CC(C)C)C(=O)O

In test [1] the target is T1, HCoV-229E spike protein (Human coronavirus 229E, UniProt P15423).
T1 construct: purchased Acrobiosystems SPN-H52H3
T1 sequence (P15423 16-1173): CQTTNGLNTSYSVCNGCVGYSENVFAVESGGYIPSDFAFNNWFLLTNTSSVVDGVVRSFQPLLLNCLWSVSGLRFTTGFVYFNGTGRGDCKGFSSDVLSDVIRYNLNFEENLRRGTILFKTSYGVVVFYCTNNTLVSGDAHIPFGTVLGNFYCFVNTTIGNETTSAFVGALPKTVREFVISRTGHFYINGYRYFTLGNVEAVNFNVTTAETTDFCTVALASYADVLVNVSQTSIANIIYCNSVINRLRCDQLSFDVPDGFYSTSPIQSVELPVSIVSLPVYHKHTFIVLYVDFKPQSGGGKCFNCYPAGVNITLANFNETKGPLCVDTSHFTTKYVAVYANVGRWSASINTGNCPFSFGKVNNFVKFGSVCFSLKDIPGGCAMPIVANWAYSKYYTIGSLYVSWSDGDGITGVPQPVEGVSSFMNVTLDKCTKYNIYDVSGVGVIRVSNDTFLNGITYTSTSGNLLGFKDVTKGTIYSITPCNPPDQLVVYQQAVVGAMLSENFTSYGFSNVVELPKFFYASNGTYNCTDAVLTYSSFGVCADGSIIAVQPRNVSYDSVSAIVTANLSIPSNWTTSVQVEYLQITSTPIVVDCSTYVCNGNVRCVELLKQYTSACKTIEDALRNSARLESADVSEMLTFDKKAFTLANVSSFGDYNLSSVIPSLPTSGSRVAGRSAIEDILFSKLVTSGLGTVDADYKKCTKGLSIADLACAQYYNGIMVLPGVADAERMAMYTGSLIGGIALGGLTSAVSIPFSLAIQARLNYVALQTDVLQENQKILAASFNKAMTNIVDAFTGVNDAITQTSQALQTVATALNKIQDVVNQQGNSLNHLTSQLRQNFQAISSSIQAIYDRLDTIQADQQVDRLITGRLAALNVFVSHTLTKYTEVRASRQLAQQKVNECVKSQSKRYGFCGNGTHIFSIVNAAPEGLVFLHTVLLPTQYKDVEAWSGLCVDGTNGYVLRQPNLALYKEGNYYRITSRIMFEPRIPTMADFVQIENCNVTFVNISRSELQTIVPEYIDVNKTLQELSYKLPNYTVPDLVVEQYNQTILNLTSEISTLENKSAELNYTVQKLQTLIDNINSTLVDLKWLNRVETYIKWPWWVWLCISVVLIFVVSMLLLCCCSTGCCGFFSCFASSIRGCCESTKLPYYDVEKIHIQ
Kind of test: Surface plasmon resonance (SPR) direct binding. To be noted: spike immobilized on CM5 chip, HBS-P+ buffer, 25 °C, 1:1 model, koff/kon.

Test [2] relates to 229E Coronavirus.
Test [3] concerns the target T1, HCoV-229E spike protein. Kind of test: Microscale thermophoresis (MST) direct binding. Particulars: NT647-labeled spike protein, PBS, triplicate.
The subject of test [4] is Influenza A H1N1 Virus. Set-up: method as in earlier work. Particulars: concentration that reduced the cytopathic effect by 50%; cited from earlier work.
Test [5] deals with T1, HCoV-229E spike protein. The test can be described thus: Nanoscale differential scanning fluorometry (nanoDSF) thermal shift. Particulars: for ∆Tm: 200 μM compound, 2 μM spike protein, PBS pH 7.4; for Tm: 200 μM peptide, 2 µM protein, ramp 20-95 °C. The format is binding.
[6] abbreviates: concentration that reduced the cytopathic effect by 50%, virus pre-incubated with compound 1 h at 4 °C, compound present 72 h, MRC-5 cells, mean ± standard error of three experiments.

For `CC(=O)N[C@@H](CO)C(=O)N[C@@H](CCCCN)C(=O)N[C@@H](Cc1c[nH]cn1)C(=O)N[C@@H](CO)C(N)=O` [Compound 2, SKHS] (Ac-SKHS-NH2), the Kd in test [1] was 41400 ± 870 nM; in test [3] it was 5.12 ± 0.6 µM. Also, the EC50 in test [2] (setting [6]) came to 500 ± 2 nM.
Regarding `CC(=O)N[C@@H](CO)C(=O)N[C@@H](CC(C)C)C(=O)N[C@@H](CC(=O)O)C(=O)N[C@@H](CS)C(N)=O` [Compound 1, SLDC] (Ac-SLDC-NH2), the dissociation constant (Kd) in test [1] was > 50000 nM; in test [3], 4.92 ± 0.7 µM. Further, the EC50 in test [2] (setting [6]) is 50 ± 0.4 nM.
Regarding `CC(=O)N[C@@H](CO)C(=O)N[C@@H](CCCCN)C(=O)N[C@@H](Cc1c[nH]cn1)C(=O)N(CCO)CC(N)=O` [Compound 6, SKHNhS] (Ac-SKH[Gly(N-CH2CH2OH)]-NH2), in test [4], the EC50 was 0.5 ± 0.004 nM. The same molecule gave a dissociation constant Kd in test [1] of 1510 ± 465 nM. For the same molecule, binding in test [3] was characterised by a dissociation constant (Kd) of 11 ± 0.8 µM. In test [5], the “∆Tm” value came out at 0.4 °C and the Tm was 82.0 °C.
For `CC(=O)N[C@@H](CO)C(=O)N(C)[C@@H](CC(C)C)C(=O)N[C@@H](CC(=O)O)C(=O)N[C@@H](CS)C(N)=O` [Compound 4, S(N-Me)LDC] (Ac-S[NMeL]DC-NH2), the 50% effective concentration (EC50) in test [4] was 0.085 ± 0.0004 nM. Moreover, the results for the Kd in test [1] and in test [3] were 1150 ± 182 nM and 2.6 ± 1.3 µM, respectively. Further, the “∆Tm” value in test [5] is 0.1 °C. In test [5], the melting temperature (Tm) was determined as 81.7 °C.
Regarding `CC(=O)N[C@@H](CO)C(=O)N[C@@H](CCCCN)C(=O)N(C)[C@@H](Cc1c[nH]cn1)C(=O)N[C@@H](CO)C(N)=O` [Compound 3, SK(N-Me)HS] (Ac-SK[NMeH]S-NH2), the concentration for a half-maximal effect (EC50) in test [4] was 0.142 ± 0.002 nM; in test [2] (setting [6]) it was ~0.031 nM and 0.031 nM; in test [2] (read-out: EC50, Infection Cycle, compound present during adsorption and entire replication cycle (1 h + 72 h)) it was 0.043 nM. For the same molecule, the equilibrium dissociation constant (Kd) in test [1] worked out at 416 ± 442 nM; in test [3], 0.39 ± 0.05 µM. In addition, the “∆Tm” value in test [5] came out at 0.3 °C. In addition, the melting temperature (Tm) in test [5] came out at 81.9 °C.

The values above are taken from publication PMC12389581, “Inhibition of Human Coronavirus 229E by Lactoferrin-Derived Peptidomimetics” (Pharmaceutics, 2025).
